Measured values as given in US9040250B2, “Binding interaction of proanthocyanidins with bacteria and bacterial components” (The United States of America, as represented by the …, priority 2006, dated 2015).
Where two headings read alike, the source gives them in different places.

Columns and labels:
[1] = tested on: LPS-FITC (E. coli 055:B5); test: LPS-FITC binding by PACs immobilized on glass waveguide (stationary assay); design: species or system Escherichia coli; conditions: patterned at 10 mg/mL via PMPI; LPS-FITC 1 hour
Description: Immobilization of PACs and LPS binding assay—To determine the ability of PAC materials to effectively bind bacteria and bacterial cell components upon immobilization to a solid support, PACs from cranberry and grape juices were covalently attached to the surface of a glass microscope slide (waveguide) using a modification of a common technique used for protein immobilization (Rowe et al., Anal. Chem., 71, 3846 (1999)). Catechin monomer and buffer only areas were also included as controls. Briefly, the waveguides, glass microscope slides (Daigger, Wheeling, Ill.), were cleaned by immersion in potassium hydroxide/methanol solution (Cras et al., Biosens. Bioelectron., 14, 683 (1999)) followed by rinsing and drying. The clean waveguides were then incubated with 2% (3-mercaptopropyl)triethoxysilane (Pierce Chemicals, Rockford, Ill.) in toluene for 45 minutes followed by rinsing and drying. The slides were immersed in 1.8 mM N-[p-maleimidophenyl]isocyanate (PMPI) in ethanol for 1 hour. The maleimide-group of PMPI reacts with the sulfhydryl-group provided by the silane reaction leaving the isocyanate-group free to react with the hydroxyl-groups of PACs. […] Slides were imaged using evanescent wave fluorescence spectroscopy with excitation at 496 nm and emission collected above 515 nm. […]

[2] = tested on: HEK 293 cells stably expressing human CD14 and TLR4/MD2; test: LPS membrane binding in HEK-CD14-TLR4/MD2 cells; format: cell-based; conditions: 25 nM LPS, 1.5 h 37° C.; 0.5 μM PAC; antibodies 500 nM in binding sites
Method: (§1) Analysis of LPS membrane binding and endocytosis. Human embryonic kidney cells (HEK 293) stably expressing human CD14 and TLR4/MD2 (HEK-CD14-TLR4/MD2; Invivogen) were grown in chambered wells and incubated with 25 nM LPS (E. coli serotype O55:B5, Sigma) in the absence or presence of 0.5 μM LH20 PAC (Dial>6K) for 1.5 h at 37° C. […] After incubation, the cells were washed with PBS (10 min) twice and either fixed (with 3.7% paraformaldehyde) to assess LPS membrane binding or fixed and permeabilized (with 0.1% Triton X-100) to determine LPS internalization. After blocking with 1% normal goat serum, membrane bound or internalized LPS was detected using a goat anti-LPS antibody (O/K serotype-specific, Abcam) conjugated to fluorescein. Nuclei were counterstained with DAPI. Imaging was performed using an Olympus IX-71 microscope. The relative amounts of membrane-associated or intracellular fluorescence were quantified by image analysis using Image J software (NIH, v. 1.37). Data is reported as the mean channel fluorescence from membrane-associated or internalized LPS and represents the analysis of 10 to 20 cells from each sample (minimum 10 measurements per each cell). Merged images were produced using Photoshop CS2 (ver. 9).

[3] = tested on: HEK 293 cells stably expressing human CD14 and TLR4/MD2; test: LPS endocytosis (internalization) in HEK-CD14-TLR4/MD2 cells; format: cell-based; conditions: 25 nM LPS, 1.5 h 37° C.; 0.5 μM PAC; antibodies 500 nM in binding sites
Method: as §1

[4] = tested on: HEK-CD14-TLR4/MD2 cells; test: Cytotoxicity, CellTiter96 cell proliferation assay; format: cell-based, human; conditions: 48 h culture
Method: Cytotoxicity assays—Cellular toxicity was measured using a calorimetric cell proliferation assay (CellTiter96™, Promega). HEK-CD14-TLR4/MD2 cells were seeded into the wells of a 96-well plate (1×10^4 cells/well) and cultured with a dose range of test compounds for 48 h prior to assay according to the manufacturer's instructions.

[5] = tested on: FITC-labeled LPS (from E. coli 055:B5); test: Fluorescence-based pull down assay of FITC-LPS with Sepharose-immobilized PACs; format: binding, Escherichia coli; conditions: for IC50: PAC beads equilibrated with lipid A, 3 μg/mL FITC-LPS (approx. 3 nM)
Method: PAC and catechin immobilization—Purified PACs and catechin (Sigma-Aldrich) were immobilized onto activated thiol-Sepharose® 4B (Sigma-Aldrich) via a (N-[p-maleimidophenyl]isocyanate) (PMPI; Pierce) crosslinker. Sepharose® was swelled in deionized water for 1 hour (1 g dry material in 15 mL H2O). The material was then washed using fresh dI-H2O over five suspend/centrifuge/decant cycles (total 50 mL per gram dry starting material). Suspension was accomplished using a vortex and centrifuge steps were conducted at 3,000 g for five minutes. The Sepharose® material (total volume 5 mL per gram starting material) was then rinsed three times with ethanol (total volume 30 mL per gram starting material). The PMPI crosslinker was incubated with the rinsed Sepharose material for 1 hour at room temperature under constant agitation using a 10-fold molar excess of PMPI over the thiol-group concentration with 3% dimethylsulfoxide in ethanol (10 mL per gram starting material). Incubation was followed by centrifuging, decanting, and rinsing in 50% ethanol for three cycles. The Sepharose was then incubated overnight at 4° C. in ethanol with PAC or catechin using a 10-fold molar excess of analyte in 50% ethanol (10 mL per gram starting material). As a final step, the Sepharose was rinsed over four cycles using 50% ethanol (40 mL total per gram starting material) and resuspended in 0.02% sodium azide in H2O (16 mL final volume per gram starting material). The materials were stored in the dark at 4° C. until use. PAC concentrations for bead sets were determined by Prussian blue assay.
Fluorescence-based pull down assays for lipopolysaccharide (LPS) were conducted in 50 mM TRIS at pH 8.0 using Sepharose-immobilized PACs and agarose-immobilized polymyxin B (Sigma-Aldrich, St. Louis, Mo.). […] The fluorescence of the FITC-labeled LPS (from E. coli 055:B5; Sigma-Aldrich) was measured using a Tecan XSafire monochrometer-based micro plate reader at 495 nm excitation and 520 nm emission (5 nm bandwidths). […]

Substance	binding of LPS-FITC by material immobilized on waveguide [1]	decrease in membrane-bound LPS (LPS binding inhibition) [2]	inhibition of LPS endocytosis [3]	concentrations at which no toxicity was elicited [4]	IC50 ([5]; read-out: IC50, inhibition of FITC-LPS binding by immobilized PACs from cranberries)	IC50 ([5]; read-out: IC50, inhibition of FITC-LPS binding by immobilized PACs from tea)	inhibition of FITC-LPS binding by immobilized PACs at high lipid A concentration ([5]; lipid A concentrations as high as 100 μM)
catechin	no binding even at the highest concentrations tested						
diphosphoryl lipid A		did not significantly reduce LPS membrane binding	84%	below 3 μM	500 nM	100 nM	≤ 80%
